Assay results published in ChEMBL document CHEMBL1159050, “2-Arylbenzoxazoles as CETP inhibitors: substitution and modification of the alpha-alkoxyamide moiety” (Bioorg Med Chem Lett, 2010).

Tests used:
[1] = target: T1, Cholesteryl ester transfer protein (Homo sapiens, UniProt P11597); assay: Inhibition of CETP assessed as cholesteryl ester transfer activity
T1 sequence (P11597 whole entry): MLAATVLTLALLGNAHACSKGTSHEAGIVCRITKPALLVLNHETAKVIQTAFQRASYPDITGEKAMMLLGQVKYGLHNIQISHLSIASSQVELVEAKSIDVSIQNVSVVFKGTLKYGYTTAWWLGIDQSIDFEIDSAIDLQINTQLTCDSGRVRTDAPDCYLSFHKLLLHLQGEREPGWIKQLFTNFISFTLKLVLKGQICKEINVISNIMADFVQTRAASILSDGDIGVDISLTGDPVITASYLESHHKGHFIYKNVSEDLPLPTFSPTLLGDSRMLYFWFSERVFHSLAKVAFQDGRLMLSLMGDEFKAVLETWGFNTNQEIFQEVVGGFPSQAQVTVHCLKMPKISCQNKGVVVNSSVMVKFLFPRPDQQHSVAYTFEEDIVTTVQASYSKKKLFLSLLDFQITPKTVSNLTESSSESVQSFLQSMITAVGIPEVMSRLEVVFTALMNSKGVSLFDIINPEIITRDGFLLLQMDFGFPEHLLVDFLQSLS

[2] = Oral bioavailability in mouse; type: ADME, organism-based; conditions: in vivo
[3] = Half life in mouse; type: ADME, organism-based; conditions: in vivo
[4] = Clearance in mouse; type: ADME, organism-based; conditions: in vivo

Compound	IC50 [1] [nM]	also measured
Cc1cccc(OCC(=O)Nc2ccc(-c3nc4cc(Cl)ccc4o3)cc2)c1	19300	
N#Cc1cccc(OCC(=O)Nc2ccc(-c3nc4cc(Cl)ccc4o3)cc2)c1	> 30000	
Cc1ccccc1OCC(=O)N(C)c1ccc(-c2nc3cc(Cl)ccc3o2)cc1	> 30000	
O=S(=O)(Cc1ccccc1)Nc1ccc(-c2nc3cc(Cl)ccc3o2)cc1	> 30000	
O=C(COc1cccc([N+](=O)[O-])c1)Nc1ccc(-c2nc3cc(Cl)ccc3o2)cc1	26500	
COc1cccc(OCC(=O)Nc2ccc(-c3nc4cc(Cl)ccc4o3)cc2)c1	12900	
CC(Oc1ccccc1)C(=O)Nc1ccc(-c2nc3cc(Cl)ccc3o2)cc1 (stereo not drawn)	> 30000	
Cc1ccc(OCC(=O)Nc2ccc(-c3nc4cc(Cl)ccc4o3)cc2)cc1	> 30000	
O=C(COc1ccccc1F)Nc1ccc(-c2nc3cc(Cl)ccc3o2)cc1	> 30000	
N#Cc1ccccc1OCC(=O)Nc1ccc(-c2nc3cc(Cl)ccc3o2)cc1	> 30000	
O=C(COc1ccccc1C(F)(F)F)Nc1ccc(-c2nc3cc(Cl)ccc3o2)cc1	6390	
O=C(COCc1ccccc1)Nc1ccc(-c2nc3cc(Cl)ccc3o2)cc1	6540	
O=C(CNCc1ccccc1)Nc1ccc(-c2nc3cc(Cl)ccc3o2)cc1	18100	
O=C(COc1ccc(Cl)cc1)Nc1ccc(-c2nc3cc(Cl)ccc3o2)cc1	6810	
O=C(CSc1ccccc1)Nc1ccc(-c2nc3cc(Cl)ccc3o2)cc1	> 30000	
COc1ccccc1OCC(=O)Nc1ccc(-c2nc3cc(Cl)ccc3o2)cc1	> 30000	
c1ccc(OCCNc2ccc(-c3nc4ccccc4o3)cc2)cc1	75900	
O=C(CNc1ccccc1)Nc1ccc(-c2nc3cc(Cl)ccc3o2)cc1	8130	
O=C(NCc1ccccc1)Nc1ccc(-c2nc3cc(Cl)ccc3o2)cc1	> 30000	
N#Cc1ccc(OCC(=O)Nc2ccc(-c3nc4cc(Cl)ccc4o3)cc2)cc1	> 30000	
O=C(CCc1ccccc1)Nc1ccc(-c2nc3cc(Cl)ccc3o2)cc1	> 30000	
O=C(Nc1ccc(-c2nc3cc(Cl)ccc3o2)cc1)OCc1ccccc1	> 30000	
Cc1ccccc1CNC(=O)c1ccc(-c2nc3cc(Cl)ccc3o2)cc1	> 30000	

Stronger by IC50 [1], values ahead:

IC50 [1] [nM]	Compound	also measured
94	N#Cc1ccc2oc(-c3ccc(NC(=O)COC(C(F)(F)F)C(F)(F)F)cc3)nc2c1	bioavailability [2]: 4%
151	CC(OCCNc1ccc(-c2nc3cc(C#N)ccc3o2)cc1)(C(F)(F)F)C(F)(F)F	half-life [3]: 7.3 h; bioavailability [2]: 20%; clearance [4]: 31 mL/min/kg
1770	O=C(COc1cccc(C(F)(F)F)c1)Nc1ccc(-c2nc3cc(Cl)ccc3o2)cc1	
890	CC(C)OCCNc1ccc(-c2nc3cc(C#N)ccc3o2)cc1	bioavailability [2]: 30%
4230	O=C(COc1ccccc1)Nc1ccc(-c2nc3cc(Cl)ccc3o2)cc1	
1990	O=C(COc1cccc(F)c1)Nc1ccc(-c2nc3cc(Cl)ccc3o2)cc1	
130	Cc1ccccc1OCC(=O)Nc1ccc(-c2nc3cc(C#N)ccc3o2)cc1	
613	CC(C)OCC(=O)Nc1ccc(-c2nc3cc(C#N)ccc3o2)cc1	
51	CC(C)(OCC(=O)Nc1ccc(-c2nc3cc(C#N)ccc3o2)cc1)C(F)(F)F	
4400	O=C(COc1ccccc1[N+](=O)[O-])Nc1ccc(-c2nc3cc(Cl)ccc3o2)cc1	
1180	Cc1ccccc1COCC(=O)Nc1ccc(-c2nc3cc(C#N)ccc3o2)cc1	
4570	COc1ccc(OCC(=O)Nc2ccc(-c3nc4cc(Cl)ccc4o3)cc2)cc1	
810	O=C(COc1ccc(C(F)(F)F)cc1)Nc1ccc(-c2nc3cc(Cl)ccc3o2)cc1	
1770	O=C(COc1ccc(F)cc1)Nc1ccc(-c2nc3cc(Cl)ccc3o2)cc1	
2700	CCCc1ccccc1OCC(=O)Nc1ccc(-c2nc3cc(Cl)ccc3o2)cc1	
2150	O=C(COc1ccccc1Cl)Nc1ccc(-c2nc3cc(Cl)ccc3o2)cc1	
1380	CCOCC(=O)Nc1ccc(-c2nc3cc(C#N)ccc3o2)cc1	
2590	CCc1ccccc1OCC(=O)Nc1ccc(-c2nc3cc(Cl)ccc3o2)cc1	
2210	O=C(COc1ccc([N+](=O)[O-])cc1)Nc1ccc(-c2nc3cc(Cl)ccc3o2)cc1	
505	N#Cc1ccc2oc(-c3ccc(NC(=O)COCc4ccccc4C(F)(F)F)cc3)nc2c1	
132	CC(C)(C)OCC(=O)Nc1ccc(-c2nc3cc(C#N)ccc3o2)cc1	
44	CC(OCC(=O)Nc1ccc(-c2nc3cc(C#N)ccc3o2)cc1)(C(F)(F)F)C(F)(F)F	
1250	O=C(COc1cccc(Cl)c1)Nc1ccc(-c2nc3cc(Cl)ccc3o2)cc1	
151	N#Cc1ccc2oc(-c3ccc(NC(=O)COC(C(F)(F)F)(C(F)(F)F)C(F)(F)F)cc3)nc2c1	
1110	Cc1ccccc1OCC(=O)Nc1ccc(-c2nc3cc(Cl)ccc3o2)cc1	
